Counter-ions that a name gives are not always drawn. Like-named read-outs stand apart in the source and are kept apart here.
Assays:
[1] = biological target: T1, D2 receptors (Chlorocebus aethiops, UniProt P52702); test: D2 receptor binding assay (3H-YM 09151-2 displacement); parameters: species or system African Green monkey; conditions: COS cells with recombinant D2 receptor; 0.5 nM 3H-YM 09151-2
T1 construct: expressed in transfected cells; host or cells: COS cells
Protocol: (§1) Assay for D2 and D3 receptor binding activity
(§2) Pellets of COS cells containing recombinantly produced D2 or D3 receptors from African Green monkey were used for the assays. The sample is homogenized in 100 volumes (w/vol) of 0.05 M Tris HCl buffer at 4° C. and pH 7.4. The sample is then centrifuged at 30,000×g and resuspended and rehomogenized. The sample is then centrifuged as described and the final tissue sample is frozen until use. The tissue is resuspended 1:20 (wt/vol) in 0.05 M Tris HCl buffer containing 100 mM NaCl.
(§3) Incubations are carried out at 48° C. and contain 0.4 ml of tissue sample, 0.5 nM ^3H-YM 09151-2 and the compound of interest in a total incubation of 1.0 ml. Nonspecific binding is defined as that binding found in the presence of 1 μM spiperone; without further additions, nonspecific binding is less than 20% of total binding.

[2] = biological target: T2, human dopamine D4 receptor subtype (Homo sapiens, UniProt P21917); test: D4 receptor binding assay ([3H]YM-09151-2 displacement)
T2 construct: expressed in transfected cells
T2 sequence (P21917 1-419): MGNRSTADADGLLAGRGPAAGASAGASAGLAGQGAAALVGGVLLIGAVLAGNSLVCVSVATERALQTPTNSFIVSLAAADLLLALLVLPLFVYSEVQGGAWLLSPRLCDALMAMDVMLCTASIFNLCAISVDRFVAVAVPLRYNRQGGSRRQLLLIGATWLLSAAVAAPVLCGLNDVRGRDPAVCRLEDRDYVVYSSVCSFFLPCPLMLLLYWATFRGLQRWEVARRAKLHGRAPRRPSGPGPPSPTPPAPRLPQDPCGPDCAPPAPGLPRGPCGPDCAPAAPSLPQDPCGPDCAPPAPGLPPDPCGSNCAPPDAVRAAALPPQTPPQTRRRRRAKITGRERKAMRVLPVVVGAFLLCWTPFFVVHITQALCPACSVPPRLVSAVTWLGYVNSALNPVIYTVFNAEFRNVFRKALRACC
Protocol: Assay for D4 receptor binding activity
Clonal cell lines expressing the human dopamine D4 receptor subtype were harvested in PBS and the cells centrifuged and the pellets stored at −80° C. until used in the binding assay. The pellets were resuspended and the cells lysed at 4° C. in 50 mM Tris pH 7.4 buffer containing 120 mM NaCl, 1 mM EDTA and 5 mM MgCl2. The homogenate is centrifuged at 48000×g for 10 minutes at 4° C. The resulting pellet is resuspended in fresh buffer and centrifuged again. After resuspension of the pellet in fresh buffer a […] aliquot is removed for protein determination. […] Incubations were carried out for 60 minutes at 25° C. in the presence of 0.1 nM [^3H] […] The incubation was terminated by rapid filtration through Whatman GF/C filters and rinsed with 2×4 ml washes of chilled 50 mM Tris (pH 7.4) and 120 mM NaCl. Non-specific binding was determined with 1 μM spiperone and radioactivity determined by counting in an LKB beta counter. Binding parameters were determined by non-linear least squares regression analysis, from which the inhibition constant Ki could be calculated for each test compound.

[3] = biological target: T3, D3 receptors (Chlorocebus aethiops, UniProt P52703); test: D3 receptor binding assay (3H-YM 09151-2 displacement); parameters: species or system African Green monkey; conditions: COS cells with recombinant D3 receptor; 0.5 nM 3H-YM 09151-2
T3 construct: expressed in transfected cells; host or cells: COS cells
Protocol: as §1, §2, §3

[4] = clonal cell lines expressing human D4, 0.1 nM [3H]YM-09151-2, 60 minutes at 25° C., read-out: Ki

T3 sequence (P52703 whole entry): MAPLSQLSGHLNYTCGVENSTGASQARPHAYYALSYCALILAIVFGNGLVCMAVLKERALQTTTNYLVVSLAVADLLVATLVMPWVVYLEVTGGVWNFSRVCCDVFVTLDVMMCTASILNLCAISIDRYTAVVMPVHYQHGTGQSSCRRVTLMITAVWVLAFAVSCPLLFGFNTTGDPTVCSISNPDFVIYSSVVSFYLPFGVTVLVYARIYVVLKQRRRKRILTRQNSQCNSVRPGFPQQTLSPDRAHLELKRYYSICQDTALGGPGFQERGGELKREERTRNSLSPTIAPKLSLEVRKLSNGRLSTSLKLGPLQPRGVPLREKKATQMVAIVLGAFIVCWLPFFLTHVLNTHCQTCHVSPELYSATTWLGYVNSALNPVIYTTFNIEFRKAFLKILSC
T1 sequence (P52702 whole entry): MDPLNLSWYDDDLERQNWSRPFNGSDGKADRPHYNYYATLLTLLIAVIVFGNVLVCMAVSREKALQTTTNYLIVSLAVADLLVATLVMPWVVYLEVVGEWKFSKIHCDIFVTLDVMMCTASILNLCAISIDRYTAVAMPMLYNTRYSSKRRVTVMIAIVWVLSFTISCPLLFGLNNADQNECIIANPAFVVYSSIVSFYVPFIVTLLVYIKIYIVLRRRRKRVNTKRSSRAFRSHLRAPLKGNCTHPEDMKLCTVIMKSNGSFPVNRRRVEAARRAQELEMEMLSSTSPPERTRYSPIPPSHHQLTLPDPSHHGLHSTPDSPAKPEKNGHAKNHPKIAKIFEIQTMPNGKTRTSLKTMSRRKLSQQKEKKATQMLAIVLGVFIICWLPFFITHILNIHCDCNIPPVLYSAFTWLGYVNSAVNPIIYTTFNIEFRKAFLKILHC

| Compound | melting point | Ki [1] | Ki [2, 4] | Ki [3] | Ki [2] |
| --- | --- | --- | --- | --- | --- |
| CN(Cc1ccccc1)Cc1nc2c([nH]1)-c1ccccc1CC2 (as salt: hydrochloride) [Compound 2, 1H-{2-(N-benzyl-N-methyl)aminomethyl}-(5,6-dihydro)-naphth[1,2-d]imidazole dihydrochloride] | 225 to 227 °C |  |  |  |  |
| c1cnc(N2CCN(Cc3nc4c([nH]3)-c3ccccc3CC4)CC2)nc1 [Compound 1, 1H-2-(1-(4-(2-pyrimidyl)piperazinyl))methyl-(5,6-dihydro)-naphth[1,2-d]imidazole dihydrochloride] |  | 4200 nM | 12 nM | 7800 nM |  |
| CN(Cc1ccccc1)Cc1nc2c([nH]1)-c1ccccc1OC2 (as salt: hydrochloride) [Compound 3, 1H-{2-(N-benzyl-N-methyl)aminomethyl}chromano[3,4-d]imidazole dihydrochloride] | 198 to 201 °C (dec.) |  |  |  |  |
| c1cnc(N2CCN(Cc3nc4c([nH]3)-c3ccccc3CC4)CC2)nc1 (as salt: hydrochloride) [Compound 1, 1H-2-(1-(4-(2-pyrimidyl)piperazinyl))methyl-(5,6-dihydro)-naphth[1,2-d]imidazole dihydrochloride] | 212 to 214 °C |  |  |  |  |
| CN(Cc1ccccc1)Cc1nc2c([nH]1)-c1ccccc1CC2 [Compound 2, 1H-{2-(N-benzyl-N-methyl)aminomethyl}-(5,6-dihydro)-naphth[1,2-d]imidazole dihydrochloride] |  | 350 nM |  | 210 nM | 81 nM |
| CN(Cc1ccccc1)Cc1nc2c([nH]1)-c1ccccc1OC2 [Compound 3, 1H-{2-(N-benzyl-N-methyl)aminomethyl}chromano[3,4-d]imidazole dihydrochloride] |  | 220 nM | 145 nM | 440 nM |  |
